{"source": "patent US20200255828A1", "about": "“METHODS AND COMPOSITIONS FOR ALTERING FUNCTION AND STRUCTURE OF CHROMATIN LOOPS AND/OR DOMAINS” (THE BROAD INSTITUTE, INC., priority 2017, published 2020)", "tested_on": "cohesin complex", "experiment": "ChIP-Seq for RAD21 and SMC1 (cohesin binding to chromatin) with and without auxin", "assay_type": "cell-based, human", "from_the_text": "Applicants employed an auxin-inducible degron (AID) (Natsume et al., 2016) to destroy RAD21, a core component of the cohesin complex. In this system, constitutive expression of the auxin-activated ubiquitin ligase TIR1 leads, in the presence of auxin, to rapid degradation of proteins tagged with an AID domain. Applicants used this system in HCT-116, a human colorectal carcinoma cell line. This cell line had been previously modified by (Natsume et al., 2016) so that both RAD21 alleles were tagged with an AID domain and a fluorescent mClover (“RAD21-mAC”) (FIG. 1A). Applicants confirmed that RAD21-mAC was efficiently degraded after 6 hours of auxin treatment using fluorescence microscopy and ChIP (FIG. 1B, 8, see Methods), and that cohesin could no longer associate with DNA using ChIP-Seq with antibodies for SMC1, a different cohesin subunit (FIG. 1C, D).\nChIP-Seq for H3K27Ac, H3K4me1, H3K4me3, H3K36me3, H3K27me3, H3K9me3, H4K16Ac, H4K20me3, H3K79me2, and H2.AZ was performed using a native ChIP-Seq protocol. Chromatin from untreated HCT-116 RAD21-mAC cells or cells treated for 6 hours with 500 uM IAA was digested with Mnase (Sigma) in digestion buffer (50 mM Tris-HCl, pH7.6, 1 mM CaCl2), 0.2% Triton X-100, butyrate 5 mM) for 5′ at 37° C. and dialyzed against RIPA buffer for 2 hrs at 4° C. Five microgram of respective antibody was incubated with 40 μl of Dynabeads Protein A (or G) for 40 min at room temperature. Antibody-bound beads were added to 500 μl of sonicated or Mnase-digested chromatin, incubated at 4° C. overnight, and washed twice with RIPA buffer, twice with RIPA buffer containing 0.3 M NaCl, twice with LiCl buffer (0.25 M LiCl, 0.5% Igepal-630, 0.5% sodium deoxycholate), once with TE (pH 8.0) plus 0.2% Triton X-100, and once with TE (pH 8.0). ChIP DNA was purified by phenol-chloroform extraction followed by ethanol precipitation. Libraries were prepped for Illumina sequencing and 50 bp single-end reads were sequenced on a HiSeq2000 or 2500 (Illumina). Applicants also performed ChIP-Seq for RAD21 and CTCF following the same protocol as above, except that cells were fixed with 1% formaldehyde for 10 minutes at 37° C. and fixation was quenched by the addition of glycine to a final concentration of 125 mM for 10 minutes. The fixed cells were sonicated using a Branson sonifier at amplitude 35%, 12 cycles of 20 seconds of sonication and 30 seconds of pause. Antibody was added to the sonicated chromatin as above and the samples were further processed as above.\nApplicants also performed ChIP-Seq for SMC1 and an additional replicate for CTCF following the protocol outlined by the ENCODE consortium (2012).\nAll ChIP-Seq data was aligned to hg19 with BWA […] (Li and Durbin, 2010), deduplicated using PicardTools, and analyzed with MACS 2.0 (Liu, 2014). All data was normalized against the corresponding input control using the ‘-c’ option of MACS 2.0. ChIP-Seq peaks were called using the ‘callpeak’ function of MACS 2.0 with default parameters. For H3K4me3 and H3K4me1, Applicants additionally used the ‘broad’ option of MACS 2.0 and merged close by peaks to identify broad peaks. […] Finally, in order to annotate broad-source domains, Applicants utilized RSEG (Song and Smith, 2011) using the following flags: ‘-b 25000’, ‘-i 20’, ‘-mode 2’.\nApplicants also analyzed the RAD21 and SMC1 signal at all ChIP-Seq peaks called in our data from untreated cells using MACS 2.0. […]", "key": {"[1]": {"conditions": "average at ChIP-Seq peaks called in untreated cells"}}}
{"smiles": "O=C(O)Cc1c[nH]c2ccccc12", "note": "[auxin, indole-3-acetic acid]", "values": [{"measurement": "cohesin peaks (merged SMC1 and RAD21 ChIP-Seq calls) lost after auxin treatment", "setting": "6 hours auxin", "result": 97, "unit": "%"}, {"measurement": "reduction in binding strength of RAD21", "setting": "[1]", "result": 81, "unit": "%"}, {"measurement": "reduction in binding strength of SMC1", "setting": "[1]", "result": 75, "unit": "%"}, {"measurement": "RAD21 mean enrichment in treated cells", "setting": "untreated 12.58", "result": 2.39}, {"measurement": "SMC1 mean enrichment in treated cells", "setting": "untreated 16.23", "result": 4.00}]}
